Experimental findings from patent US6750009B2 (priority 2002, dated 2004) are described below.

Values joined by “and” are separate entries in the source; they are usually repeats but may differ in a detail not shown here. Identical values can stand only once. Like-named read-outs stand apart in the source and are kept apart here.

Assay [1] deals with RSV minigenome. Format: cell-based, Respiratory syncytia virus (RSV).
The test system of a further assay is Sindbis replicon. Type of assay: cell-based, Sindbis virus. The following applies: for Sindbis Mixed Viral Replicon Culture % of Control (ave): Table 3. In general terms: In antiviral work, replicon cells carry a viral genome segment that copies itself.
The next assay relates to HCV replicon. Format: cell-based, hepatitis C virus.
Assay [2] concerns RSV minigenome. Type of assay: cell-based, Respiratory syncytia virus (RSV). The source holds these as a separate data set.
The next assay relates to YFR replicon. Type of assay: cell-based, yellow fever virus. The following applies: for YFR Mixed Viral Replicon Culture % of Control (ave): co-cultured HCV/Sindbis/YFR replicons.

For the compound `NC(=O)c1ncn([C@@H]2O[C@H](CO)[C@@H](O)[C@H]2O)n1` [Ribavirin, ribavirin], the “RSV Mixed Viral Culture % of Control (ave)” value is 96.16 % of Control with RSV minigenome [1] (Ribavirin 0.5 μ/ml), 44.14 % of Control in the assay with RSV minigenome [1] (Ribavirin 1 μ/ml), 42.42 % of Control with RSV minigenome [1] (Ribavirin 10 μ/ml) and 13.90 % of Control with RSV minigenome [1] (Ribavirin 100 μ/ml). For the same compound, the “effect on Sindbis replicon replication” value with Sindbis replicon is on record as “did inhibit”. Besides, the “Sindbis Mixed Viral Replicon Culture % of Control (ave)” value in the assay on Sindbis replicon (Ribavirin 0.5 μg/ml) is on record as 40.54 % of Control; with Sindbis replicon (Ribavirin 1 μg/ml), 62.98 % of Control; in the assay on Sindbis replicon (Ribavirin 10 μg/ml), 35.04 % of Control; in the assay on Sindbis replicon (Ribavirin 100 μg/ml), 18.11 % of Control. Besides, the “HCV Mixed Viral Replicon Culture % of Control (ave)” value in the assay on HCV replicon was 100.37 % of Control and 101.51 % of Control and 99.75 % of Control and 110.22 % of Control. Also, the “effect on HCV replication” value with HCV replicon is reported as “no effect”. Besides, the “RSV Single Viral Culture % of Control (ave)” value with RSV minigenome [2] (Ribavirin 0.5 μ/ml) is 97.31 % of Control; with RSV minigenome [2] (Ribavirin 1 μ/ml), 17.86 % of Control; in the assay on RSV minigenome [2] (Ribavirin 10 μ/ml), 3.74 % of Control; in the assay with RSV minigenome [2] (Ribavirin 100 μ/ml) it was 2.82 % of Control.
On to α-interferon [IFNα], for which the “RSV Mixed Viral Culture % of Control (ave)” value in the assay with RSV minigenome [1] (IFN-α 100 Units/ml) is 84.30 % of Control; with RSV minigenome [1] (IFN-α 1000 Units/ml), 77.80 % of Control. In addition, in the assay with Sindbis replicon, the “inhibition of Sindbis replicon” value was > 98%. Further, the “inhibition of HCV replicon” value in the assay on HCV replicon is on record as > 91%. The “inhibition of YFR replicon” value in the assay on YFR replicon (100 u/ml IFNα, mixed viral replicon culture) is reported as > 81%. Also, the figures for the “YFR Mixed Viral Replicon Culture % of Control (ave)” value with YFR replicon (IFNα 1 Units/ml), in the assay with YFR replicon (IFNα 10 Units/ml) and in the assay with YFR replicon (IFNα 100 Units/ml) were 41.47 % of Control, 26.09 % of Control and 18.64 % of Control, respectively. The figures for the “RSV Single Viral Culture % of Control (ave)” value in the assay on RSV minigenome [2] (IFN-α 100 Units/ml) and with RSV minigenome [2] (IFN-α 1000 Units/ml) were 84.30 % of Control and 47.29 % of Control, respectively.
